Experimental data published in the NIST ThermoML archive (doi:10.1021/je050196o).
Numbers after ± are expanded uncertainties.

Columns and labels:
[1] = xn = mol fraction of the nth substance listed; settings: 101 kPa, Liquid; for viscosity: Capillary tube (Ostwald / Ubbelohde) method; for mass density: Pycnometric method
[2] = 101 kPa, Liquid; for viscosity: Capillary tube (Ostwald / Ubbelohde) method; for mass density: Pycnometric method

C=C(C)C(=O)O [2-methyl-2-propenoic acid] + COCC(C)OC(C)=O
[1]
Settings	mass density, 298.15 K [kg/m3]	mass density, 308.15 K [kg/m3]	mass density, 318.15 K [kg/m3]	viscosity, 298.15 K [mPa·s]	viscosity, 308.15 K [mPa·s]	viscosity, 318.15 K [mPa·s]
x2 = 0	1009.5 ± 2	999.4 ± 2	989.2 ± 2	1.267 ± 0.026	1.078 ± 0.023	0.945 ± 0.02
x2 = 0.1	1004 ± 2	994.1 ± 2	983.9 ± 2	1.423 ± 0.03	1.202 ± 0.025	1.033 ± 0.022
x2 = 0.2	999 ± 2	989.3 ± 2	979.4 ± 2	1.506 ± 0.032	1.301 ± 0.027	1.105 ± 0.023
x2 = 0.3	993.9 ± 2	984.1 ± 2	973.9 ± 2	1.56 ± 0.033	1.345 ± 0.028	1.124 ± 0.024
x2 = 0.3999	989.1 ± 2	979.2 ± 2	968.9 ± 2	1.585 ± 0.033	1.348 ± 0.028	1.125 ± 0.024
x2 = 0.5	984.8 ± 2	975 ± 2	964.8 ± 2	1.569 ± 0.033	1.31 ± 0.028	1.1 ± 0.023
x2 = 0.6	980.1 ± 2	970.3 ± 2	959.9 ± 2	1.499 ± 0.032	1.24 ± 0.026	1.049 ± 0.022
x2 = 0.7	975.8 ± 2	966 ± 2	955.5 ± 2	1.411 ± 0.03	1.168 ± 0.025	0.988 ± 0.021
x2 = 0.7999	970.8 ± 2	960.9 ± 2	950.5 ± 2	1.301 ± 0.028	1.081 ± 0.023	0.929 ± 0.02
x2 = 0.9	965.8 ± 2	956 ± 2	945.6 ± 2	1.175 ± 0.025	0.985 ± 0.021	0.844 ± 0.018

C=C(C)C(=O)OCc1ccccc1 [benzyl methacrylate]
[2]
Settings	mass density [kg/m3]	viscosity [mPa·s]
298.15 K	1034.7 ± 2.3	2.302 ± 0.065
308.15 K	1025.8 ± 2.3	1.885 ± 0.064
318.15 K	1017 ± 2.3	1.58 ± 0.063

C=C(C)C(=O)OCc1ccccc1 [benzyl methacrylate] + COCC(C)OC(C)=O
[1]
Settings	mass density, 298.15 K [kg/m3]	mass density, 308.15 K [kg/m3]	mass density, 318.15 K [kg/m3]	viscosity, 298.15 K [mPa·s]	viscosity, 308.15 K [mPa·s]	viscosity, 318.15 K [mPa·s]
x2 = 0	1034.7 ± 2.3	1025.8 ± 2.3	1017 ± 2.3	2.302 ± 0.065	1.885 ± 0.064	1.58 ± 0.063
x2 = 0.1	1029 ± 2.3	1019.9 ± 2.3	1010.9 ± 2.3	2.245 ± 0.065	1.84 ± 0.063	1.544 ± 0.062
x2 = 0.2	1023.1 ± 2.3	1013.8 ± 2.2	1004.6 ± 2.2	2.123 ± 0.064	1.743 ± 0.063	1.465 ± 0.062
x2 = 0.3	1017 ± 2.2	1007.6 ± 2.2	998.2 ± 2.2	1.991 ± 0.063	1.638 ± 0.062	1.377 ± 0.062
x2 = 0.4	1010.6 ± 2.2	1001.1 ± 2.2	991.5 ± 2.2	1.857 ± 0.063	1.53 ± 0.062	1.289 ± 0.061
x2 = 0.4999	1003.8 ± 2.2	994.2 ± 2.1	984.4 ± 2.1	1.694 ± 0.062	1.399 ± 0.061	1.183 ± 0.061
x2 = 0.6	996.6 ± 2.1	986.9 ± 2.1	976.9 ± 2.1	1.559 ± 0.062	1.286 ± 0.061	1.086 ± 0.061
x2 = 0.7	989 ± 2.1	979.2 ± 2.1	969 ± 2.1	1.434 ± 0.061	1.189 ± 0.061	1.007 ± 0.061
x2 = 0.8	980.7 ± 2.1	970.7 ± 2	960.3 ± 2	1.327 ± 0.061	1.105 ± 0.061	0.937 ± 0.061
x2 = 0.9	971.9 ± 2	961.8 ± 2	951.2 ± 2	1.232 ± 0.061	1.028 ± 0.061	0.874 ± 0.06
